Experimental data taken from US7176217B2, “Azabicyclo compound matrix metalloprotease inhibitor and skin preparation” (Shiseido Co., Ltd., priority 2001, dated 2007).

target: T1, MMP-9 (crude enzyme solution derived from a mouse skin) (Mus musculus, UniProt P41245); test: Gelatinase group MMPs inhibition test (gelatin zymography); assay type: biochemical; design: key: ⊚: The band disappeared.; ◯: The band was slightly confirmed.; Δ: The band became narrower than control.; X: Unchanged; conditions: sample solution 100 μM; gel incubated overnight; size of MMP-9 band compared with control solution
T1 construct: crude enzyme solution derived from a mouse skin; from tissue; host or cells: mouse skin
Method: A test material was dissolved in dimethyl sulfoxide (DMSO) to the concentration of 10 mM, to prepare a stock solution. The stock solution was diluted with a measuring buffer (0.05M tris at pH 7.5 containing 0.2M NaCl and 5 mM CaCl2) to adjust the concentration to 100 μM, which was used as a sample solution. As a control solution, a solution containing no test material was similarly prepared.
As a gelatinase group enzyme, MMP-9 (crude enzyme solution derived from a mouse skin) was used. The test was performed according to a gelatin zymography method (“Bio-antioxidant provitamin C”, Nobuhiko Miwa ed., p. 76, 1999, Fragrance Journal, Tokyo).
That is, a gel containing gelatin in which a predetermined amount of the crude enzyme solution had been subjected to electrophoresis in advance, was incubated overnight with a sample solution or a control solution. After the gel was stained, the appearing band corresponding to MMP-9 was evaluated by a decrease when its size compared with that of a band of control solution. Evaluation criteria was as follows: • ⊚: The band disappeared. • ◯: The band was slightly confirmed. • Δ: The band became narrower than control. • X: Unchanged.

T1 sequence (P41245 108-730): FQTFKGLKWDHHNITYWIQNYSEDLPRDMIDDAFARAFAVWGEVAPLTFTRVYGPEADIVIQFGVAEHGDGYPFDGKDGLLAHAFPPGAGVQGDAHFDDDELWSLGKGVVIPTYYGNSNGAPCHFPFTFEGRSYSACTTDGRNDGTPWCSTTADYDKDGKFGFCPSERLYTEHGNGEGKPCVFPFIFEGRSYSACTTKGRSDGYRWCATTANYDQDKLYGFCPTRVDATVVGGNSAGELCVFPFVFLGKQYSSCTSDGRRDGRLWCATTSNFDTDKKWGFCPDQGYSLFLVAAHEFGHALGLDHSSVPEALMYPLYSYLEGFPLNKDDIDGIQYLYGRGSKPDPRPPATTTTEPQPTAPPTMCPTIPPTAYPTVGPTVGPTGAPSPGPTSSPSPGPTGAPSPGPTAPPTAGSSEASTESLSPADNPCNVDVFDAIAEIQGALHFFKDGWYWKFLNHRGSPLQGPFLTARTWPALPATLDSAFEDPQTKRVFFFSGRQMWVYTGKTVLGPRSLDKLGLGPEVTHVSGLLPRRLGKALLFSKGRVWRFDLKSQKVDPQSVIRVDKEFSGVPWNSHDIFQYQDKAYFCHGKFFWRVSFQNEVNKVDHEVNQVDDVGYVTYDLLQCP

Row | SMILES | MMPs Inhibition
1 | COc1ccc(S(=O)(=O)N2C3CCC(C3)C2C(=O)NO)cc1 (centres unmarked) [Compound 1, N-Hydroxy-2-[(4-methoxyphenyl)sulfonyl]-2-azabicyclo[2.2.1]heptane-3-carboxamide] | ◯~⊚
2 | COc1ccc(S(=O)(=O)N2[C@H]3CC[C@H](C3)[C@@H]2C(=O)NO)cc1 [Compound 3, (1S, 3R, 4R)—N-Hydroxy-2-[(4-methoxyphenyl)sulfonyl]-2-azabicyclo[2.2.1]heptane-3-carboxamide] | ◯~⊚
3 | O=C(NO)[C@H]1[C@@H]2CC[C@@H](C2)N1S(=O)(=O)c1ccc(Cl)cc1 [Compound 9, (1S, 3R, 4R)-2-[(4-Chlorophenyl)sulfonyl]-N-hydroxy-2-azabicyclo[2.2.1]heptane-3-carboxamide] | ◯
4 | CCCCOc1ccc(S(=O)(=O)N2[C@H]3CCC(C3)[C@@H]2C(=O)NO)cc1 [Compound 12, (1S, 3R, 4R)-2-[4-(Butoxyphenyl)sulfonyl]-N-hydroxy-2-azabicyclo[2.2.1]heptane-3-carboxamide] | ⊚
5 | O=C(NO)[C@H]1[C@@H]2CC[C@@H](C2)N1S(=O)(=O)c1ccc(F)cc1 [Compound 13, (1S, 3R, 4R)-2-[(4-Fluorophenyl)sulfonyl]-N-hydroxy-2-azabicyclo[2.2.1]heptane-3-carboxamide] | ◯

More lines, now with the values ahead:

Row | MMPs Inhibition | SMILES
6 | ◯~⊚ | COc1ccc(S(=O)(=O)N2C3CCC(CC3)[C@@H]2C(=O)NO)cc1 [Compound 7, (3R)—N-Hydroxy-2-[(4-methoxyphenyl)sulfonyl]-2-azabicyclo[2.2.2]octane-3-carboxamide]
7 | ◯ | O=C(NO)[C@H]1[C@@H]2CC[C@@H](C2)N1S(=O)(=O)c1ccccc1 [Compound 8, (1S, 3R, 4R)—N-Hydroxy-2-(phenylsulfonyl)-2-azabicyclo[2.2.1]heptane-3-carboxamide]
8 | ◯ | COc1ccc(S(=O)(=O)N2[C@@H]3CC(C(C)(C)C)[C@H](C3)[C@@H]2C(=O)NO)cc1 (stereo partly drawn) [Compound 14, 5-(tert-Butyl)-(1R, 3R, 4S)—N-hydroxy-2-[(4-methoxyphenyl)sulfonyl]-2-azabicyclo[2.2.1]heptane-3-carboxamide]
